Laboratory results published in patent US9610236B2, “Cosmetic use of Queuine” (AMABIOTICS, priority 2013, dated 2017).
Entries after “also recorded” stand apart in the source; their conditions may differ.

How the values were obtained:
Assay type in all cases: cell-based
[1] = test system: HDFa, adult human dermal fibroblasts; assay: Cytotoxicity / cell viability, MTT assay; conditions: for Mean - blank (cell viability OD) / OD mean values (cell viability) / Mean OD values (cell viability): MTT; for OD mean values (cell viability) / Mean OD values (cell viability): OD 570 nm; for OD mean values (cell viability): DMEM 2.5% FCS
Method: (§1) The stock solution of queuine was prepared with 15 mg/ml methanol and the dilutions were obtained in DMEM (Dulbecco's Modified […]) in the presence of variable concentrations of foetal calf serum (FCS) (DMEM+2.5% FCS+antibiotics (penicillin/streptomycin)+glutamine): depleted medium with 2.5% FCS for the viability, proliferation and cell migration experiments.
The dilution range prepared for the toxicity/viability assay was the following:
(§2) Cell type: HDFa, adult human dermal fibroblasts, person, used between passage 4 and passage 6.
(§3) The adult HDFs used were seeded to a proportion of 5×10^3 cells/well in 96-well plates (passage 4) in 200 μl culture medium without FCS (supplemented DMEM+0% FCS). 24 h after seeding, the culture medium was changed and the different dilutions of the product or its carrier (methanol) were added at 200 μl per well, with 3 wells per culture condition.
Cell proliferation was evaluated using a colorimetric assay (MTT assay) after culture times of 1, 2 and 3 days. This assay is based on reduction of the yellow tetrazolium salt (MTT) [3-(4,5-dimethylthiazol bromide] to a blue-purple formazan product by the mitochondrial NADPH reductases of the cells, provided they are living. The crystals were then dissolved in 100% ethanol—DMSO mixture (v/v). Colouring of the supernatant, proportional to the number of living cells, was measured by optical density (OD) read-out on a spectrophotometer at a wavelength of 570 nm. The assay was conducted at D1, D2 and D3 (D0 corresponding to the time of addition of the solutions to be assayed).
The mean OD values of the triplicates are given on a graph for each kinetic time. Standard deviations are indicated.

[2] = test system: HDFa, adult human dermal fibroblasts; assay: Cell proliferation, BrdU assay; conditions: for Mean ODs (BrdU cell proliferation): OD 450 nm
Method: as §1
This first assay allowed fine-tuning of the applied concentration range. The dilution range for the assay of cell proliferation kinetics was as follows:
as §2, §3
Cell proliferation was evaluated using an assay of ELISA type (BrdU assay, Bromodeoxyuridine) after 1, 2 and 3 days of culture.
BrdU is a synthetic nucleoside and an analogue of thymidine, which can be recognised by an anti-BrdU antibody. It is incorporated during DNA replication of the proliferating cells. The anti-BrdU antibody is coupled to an enzyme which, in the presence of its substrate, will degrade the latter. Detection of BrdU is therefore carried out by colorimetric enzymatic assay.
Degradation of the enzyme substrate will stain the supernatant proportional to the amount of incorporated BrdU. Measurement is then performed by read-out of optical density (OD) using a spectrophotometer at a wavelength of 450 nm. The assay was conducted at D1, D2 and D3 (D0 corresponding to the time of addition of the solutions to be assayed).

[3] = test system: HDFa, adult human dermal fibroblasts; assay: Cell migration into calibrated acellular gap (culture inserts, image comparison); conditions: 24 h
Method: The dilution range prepared for evaluating migration was identical to the range for evaluating kinetics with the exclusion of the 0.3 μg/ml concentration. The adult HDFs used were seeded in the presence of previously sterilised culture inserts which allowed the creation of calibrated acellular regions. 100,000 HDFa in 600 μl and 30,000 cells in 150 μl were respectively added outside and inside the inserts, in DMEM+2.5% FCS. After an incubation time of 5 h at 37° C., the inserts were removed and the wells washed twice with PBS 1× to eliminate every cell which had not adhered. The queuine molecule was then added at 30, 10, 3 or 1 μg/ml in DMEM 2.5% FCS, and an equivalent range of methanol was also carried out, two wells per condition. The wells were photographed at t=0 h and the plates then incubated for 24 h. The cells were fixed with paraformaldehyde before taking photos at 24 h. The images were analysed using ImageJ software, to improve the contrast thereof. All fields were examined and the two most representative of each condition were chosen for each time indication. Analysis was performed by comparison with the control. The adult HDFs were seeded in the presence of previously sterilised culture inserts, to create calibrated acellular regions in a confluent cell mat. The cells tend to fill the gap created by migrating from the edges to close the gap. After 5 h incubation at 37° C., the inserts were removed and the wells washed twice in PBS 1× to eliminate every non-adhering cell. Queuine was then added at 30, 10, 3 or 1 μg/ml in DMEM 2.5% FCS and an equivalent range of methanol was also prepared, two wells per condition. Photos of the wells were taken at t=0 h. The cells were cultured 24 h at 37° C., before being fixed in paraformaldehyde. Photos were taken at t=24 h. The photos were compared with each other to assess the difference in cell migration into the gap between the different assayed conditions.

## Nc1nc2[nH]cc(CN[C@H]3C=C[C@H](O)[C@@H]3O)c2c(=O)[nH]1 [Queuine, 2-amino-5-((((1s,4s,5r)-4,5-dihydroxy-2-cyclopenten-1-yl)amino)methyl)-1,7-dihydro-4h-pyrrolo(2,3-d)pyrimidin-4-one]
[1]; 0.1 μg/ml, 24 h contact time
  Mean - blank (cell viability OD): 0.133
  OD mean values (cell viability): 0.228
[1]; 0.1 μg/ml, 48 h contact time
  Mean - blank (cell viability OD): 0.219
  Mean OD values (cell viability): 0.304
[1]; 0.1 μg/ml, 72 h contact time
  Mean - blank (cell viability OD): 0.223
  Mean OD values (cell viability): 0.341
[1]; 1 μg/ml, 24 h contact time
  Mean - blank (cell viability OD): 0.155
  OD mean values (cell viability): 0.250
[1]; 1 μg/ml, 48 h contact time
  Mean - blank (cell viability OD): 0.246
  Mean OD values (cell viability): 0.331
[1]; 1 μg/ml, 72 h contact time
  Mean - blank (cell viability OD): 0.244
  Mean OD values (cell viability): 0.362
[1]; 10 μg/ml, 24 h contact time
  Mean - blank (cell viability OD): 0.151
  OD mean values (cell viability): 0.246
[1]; 10 μg/ml, 48 h contact time
  Mean - blank (cell viability OD): 0.243
  Mean OD values (cell viability): 0.328
[1]; 10 μg/ml, 72 h contact time
  Mean - blank (cell viability OD): 0.277
  Mean OD values (cell viability): 0.395
[1]; 100 μg/ml, 24 h contact time
  Mean - blank (cell viability OD): 0.138
  OD mean values (cell viability): 0.233
[1]; 100 μg/ml, 48 h contact time
  Mean - blank (cell viability OD): 0.188
  Mean OD values (cell viability): 0.273
[1]; 100 μg/ml, 72 h contact time
  Mean - blank (cell viability OD): 0.154
  Mean OD values (cell viability): 0.272
[1]; 100 μg/ml, at 48 h
  cytotoxic effect: exhibited a cytotoxic effect
[1]; concentrations below 100 μg/ml
  cytotoxic effect: do not exhibit any cytotoxic effect; also recorded: did not display any cytotoxic effect
[2]; 0.3 μg/ml, 24 h contact time
  Mean - blank (BrdU OD): 1.181
[2]; 0.3 μg/ml, 24 h contact time, DMEM 2.5% FCS
  Mean ODs (BrdU cell proliferation): 1.312
[2]; 0.3 μg/ml, 48 h contact time
  Mean - blank (BrdU OD): 0.677
[2]; 0.3 μg/ml, 48 h contact time, shortened substrate incubation
  Mean ODs (BrdU cell proliferation): 0.800
[2]; 0.3 μg/ml, 72 h contact time
  Mean - blank (BrdU OD): 0.416
[2]; 0.3 μg/ml, 72 h contact time, shortened substrate incubation
  Mean ODs (BrdU cell proliferation): 0.586
[2]; 1 μg/ml, 24 h contact time
  Mean - blank (BrdU OD): 1.197
[2]; 1 μg/ml, 24 h contact time, DMEM 2.5% FCS
  Mean ODs (BrdU cell proliferation): 1.328
[2]; 1 μg/ml, 48 h contact time
  Mean - blank (BrdU OD): 0.803
[2]; 1 μg/ml, 48 h contact time, shortened substrate incubation
  Mean ODs (BrdU cell proliferation): 0.926
[2]; 1 μg/ml, 72 h contact time
  Mean - blank (BrdU OD): 0.378
[2]; 1 μg/ml, 72 h contact time, shortened substrate incubation
  Mean ODs (BrdU cell proliferation): 0.548
[2]; 3 μg/ml, 24 h contact time
  Mean - blank (BrdU OD): .391
[2]; 3 μg/ml, 24 h contact time, DMEM 2.5% FCS
  Mean ODs (BrdU cell proliferation): 1.522
[2]; 3 μg/ml, 48 h contact time
  Mean - blank (BrdU OD): 0.793
[2]; 3 μg/ml, 48 h contact time, shortened substrate incubation
  Mean ODs (BrdU cell proliferation): 0.915
[2]; 3 μg/ml, 72 h contact time
  Mean - blank (BrdU OD): 0.511
[2]; 3 μg/ml, 72 h contact time, shortened substrate incubation
  Mean ODs (BrdU cell proliferation): 0.681
[2]; 10 μg/ml, 24 h contact time
  Mean - blank (BrdU OD): 1.494
[2]; 10 μg/ml, 24 h contact time, DMEM 2.5% FCS
  Mean ODs (BrdU cell proliferation): 1.625
[2]; 10 μg/ml, 48 h contact time
  Mean - blank (BrdU OD): 0.943
[2]; 10 μg/ml, 48 h contact time, shortened substrate incubation
  Mean ODs (BrdU cell proliferation): 1.066
[2]; 10 μg/ml, 72 h contact time
  Mean - blank (BrdU OD): 0.538
[2]; 10 μg/ml, 72 h contact time, shortened substrate incubation
  Mean ODs (BrdU cell proliferation): 0.708
[2]; 30 μg/ml, 24 h contact time
  Mean - blank (BrdU OD): 1.502
[2]; 30 μg/ml, 24 h contact time, DMEM 2.5% FCS
  Mean ODs (BrdU cell proliferation): 1.634
[2]; 30 μg/ml, 48 h contact time
  Mean - blank (BrdU OD): 1.026
[2]; 30 μg/ml, 48 h contact time, shortened substrate incubation
  Mean ODs (BrdU cell proliferation): 1.149
[2]; 30 μg/ml, 72 h contact time
  Mean - blank (BrdU OD): 0.787
[2]; 30 μg/ml, 72 h contact time, shortened substrate incubation
  Mean ODs (BrdU cell proliferation): 0.958
[2]; 3, 10 and 30 μg/ml after 72 hours' incubation
  proliferative effect: a proliferative effect is evidenced
[2]; 72 hours, 30 μg/ml
  proliferative effect: particularly pronounced; also recorded: major proliferative effect
[2]; 72 hours, 3 and 10 μg/ml
  proliferative effect: clear proliferative effect
[2]; short times (24 and 48 hours)
  proliferative effect compared with the carrier: no significant effect
[3]; 10 μg/ml and 30 μg/ml in 2.5% FCS
  migration compared with 2.5% FCS control: better migration than in 2.5% FCS
[3]; 10 μg/ml
  effect on migration of the fibroblasts: has an effect on migration of the fibroblasts; also recorded: has an effect on the migration of adult HDFs
[3]; 30 μg/ml in 2.5% FCS
  gap closure (observation of photos): the cells of the two edges meet in the centre of the gap
[3]; 30 μg/ml
  effect on migration of the fibroblasts: confirmed
[3]; 10 and 30 μg/ml
  migration compared with positive 10% FCS control: equivalent to that obtained with the positive 10% FCS control
